Measured values reported in patent US11505558B1, “Antiviral heterocyclic compounds” (Enanta Pharmaceuticals, Inc., priority 2019, dated 2022).
One block for each compound: values may come before it.

Test system: genotype A, "Long" strain RSV
Assay: RSV-A assay (CPE, ATPlite readout in Hep-2 cells)
Type: cell-based
Conditions: human respiratory syncytial virus, HEp-2, Hep-2 cells, genotype A "Long" strain RSV, MOI 0.1; read-out: Human RSV-A (“Long” strain) EC50
Excerpt: Hep-2 cells, (originally derived from tumors grown in irradiated-cortisonised weanling rats that had been injected with epidermoid carcinoma tissue from a person's larynx, but later found to be indistinguishable from HeLa cells by PCR DNA analysis), were used for the culturing of genotype A, “Long” strain RSV. Flasks were inoculated with RSV and viral stocks were collected once cytopathic effect (CPE) was greater than […]. Viral stocks in […] sucrose media were snap frozen using liquid nitrogen to increase viral stability. Viral stock titers were quantified by tissue culture infectious dose 50% (TCID50) using 8,000 cells per well and 3-fold viral dilutions across a 96-well plate, cultured for 4 days. Viral stock titers were also quantified by a plaque forming unit assay, as described elsewhere.
Following extensive parameter testing, the final assay is run as follows: Hep-2 cells are seeded into the inner 60 wells of a 96-well plate at 8,000 cells per well in a volume of 50 μL using Growth Media (DMEM without phenol red, 1% L-Glut, 1% Penn/Strep, 1% nonessential amino acids, 10% heat-inactivated FBS). 2-fold serial dilutions of control and test compounds are added to the wells in duplicate in a total volume of 25 μL. Viral stock is then added to the wells at a multiplicity of infection (MOI) of 0.1 in a volume of 25 μL, bringing the total volume of each well to 100 μL. The MOI is calculated using the PFU/mL, or TCID50 if unavailable. Each 96-well plate has a control column of 6 wells with cells and virus but no compound (negative control, max CPE), a column with cells but no compound or virus (positive control, minimum CPE), and a column with no cells or virus or compound (background plate/reagent control). The control wells with cells but no virus are given an additional 25 μL of growth media containing an equal quantity of sucrose as those wells receiving the viral stock in order to keep consistent in media and volume conditions. The outer wells of the plate are filled with 125 μL of moat media (DMEM, 1% Penn/Strep) to act as a thermal and evaporative moat around the test wells. Following a 5-day incubation period, the plates are read using ATPlite (50 uL added per well), which quantifies the amount of ATP (a measure of cell health) present in each well. Assay plates are read using the Envision luminometer. […] EC50 ranges are as follows: A<0.2 μM; B>0.2 μM.

Structure (SMILES): C[C@]1(C(N)=O)COc2c1cc([C@@](O)(CNC(=O)c1ccc(-c3ccnc(C(F)(F)F)c3)c(OC3CC3)c1)C(F)(F)F)nc2-c1ccc(F)cc1 [Example 152]
- EC50: > 0.2 µM

Structure (SMILES): C[C@]1(C(N)=O)COc2c1cc([C@@](O)(CNC(=O)c1ccc(OC3CC3)cc1)C(F)(F)F)nc2-c1ccc(F)cc1 [Example 71]
- EC50: < 0.2 µM

Structure (SMILES): C[C@]1(C(=O)NCCNC(N)=O)COc2c1cc([C@@](O)(CNC(=O)c1cc(OC3CC3)c3ncccc3c1)C(F)(F)F)nc2-c1ccc(F)cc1 [Example 478]
- EC50: > 0.2 µM

Structure (SMILES): C[C@]1(C(=O)NCc2ccc[nH]2)COc2c1cc([C@@](O)(CNC(=O)c1cc(OC3CC3)c3ncccc3c1)C(F)(F)F)nc2-c1ccc(F)cc1 [Example 480]
- EC50: < 0.2 µM

Structure (SMILES): C[C@]1(C(N)=O)COc2c1cc([C@@](O)(CNC(=O)c1cncnc1)C(F)(F)F)nc2-c1ccc(F)cc1 [Example 298]
- EC50: > 0.2 µM

Structure (SMILES): COc1cc(C(=O)NC[C@](O)(c2cc3c(c(-c4cn(-c5ccc(F)cc5)nn4)n2)OC[C@]3(C)C(N)=O)C(F)(F)F)ccc1OC1CC1 [Example 517]
- EC50: > 0.2 µM

Structure (SMILES): C[C@]1(C(N)=O)COc2c1cc([C@@](O)(CNC(=O)c1ccc(OC3CC3)c(-c3cnc(C4CC4)nc3)c1)C(F)(F)F)nc2-c1ccc(F)cc1 [Example 112]
- EC50: < 0.2 µM

Structure (SMILES): C[C@]1(C(N)=O)COc2c1cc([C@@](O)(CNC(=O)c1ccc(OC3CC3)c(-c3ccc(C(F)(F)F)cn3)c1)C(F)(F)F)nc2-c1ccc(F)cc1 [Example 108]
- EC50: > 0.2 µM

Structure (SMILES): C[C@@H](O)COc1ccc(C(=O)NC[C@](C)(O)c2cc3c(c(-c4ccc(F)cc4)n2)OC[C@]3(C)C(N)=O)cc1OC1CC1 [Example 267]
- EC50: < 0.2 µM

Structure (SMILES): C[C@]1(C(N)=O)COc2c1cc([C@@](O)(CNC(=O)c1cc3cccnc3cc1Cl)C(F)(F)F)nc2-c1ccc(F)cc1 [Example 241]
- EC50: > 0.2 µM

Structure (SMILES): C[C@]1(C(N)=O)COc2c1cc([C@@](O)(CNC(=O)c1cc3c(Cl)cccc3[nH]1)C(F)(F)F)nc2-c1ccc(F)cc1 [Example 602]
- EC50: > 0.2 µM

Structure (SMILES): COc1cc(C(=O)NC[C@](O)(c2cc3c(c(C#Cc4cc(F)c(F)c(F)c4)n2)OC[C@]3(C)C(N)=O)C(F)(F)F)ccc1OC1CC1 [Example 511]
- EC50: > 0.2 µM

More lines, now with the values ahead:

- EC50: > 0.2 µM
Structure (SMILES): Cc1ncc(-c2ccc(C(=O)NC[C@](O)(c3cc4c(c(-c5ccc(F)cc5)n3)OC[C@]4(C)C(N)=O)C(F)(F)F)cc2OC2CC2)cn1 [Example 164]

- EC50: < 0.2 µM
Structure (SMILES): CN1Cc2cc(C(=O)NC[C@](O)(c3cc4c(c(-c5ccc(F)cc5)n3)OC[C@]4(C)C(N)=O)C(F)(F)F)ccc2C1=O [Example 644]

- EC50: < 0.2 µM
Structure (SMILES): Cc1cnc2c(O)cc(C(=O)NC[C@](O)(c3cc4c(c(-c5ccc(F)cc5)n3)OC[C@]4(C)C(N)=O)C3CC3)cc2c1 [Example 254]

- EC50: > 0.2 µM
Structure (SMILES): C[C@]1(C(N)=O)COc2c1cc([C@@](O)(CNC(=O)c1cc(OCCNS(C)(=O)=O)c3ncccc3c1)C(F)(F)F)nc2-c1ccc(F)cc1 [Example 358]

- EC50: > 0.2 µM
Structure (SMILES): C[C@]1(C(N)=O)COc2c1cc([C@@](O)(CNC(=O)c1cc(OCCN)c3ncccc3c1)C(F)(F)F)nc2-c1ccc(F)cc1 [Example 356]

- EC50: < 0.2 µM
Structure (SMILES): C[C@]1(C(N)=O)COc2c1cc([C@@](O)(CNC(=O)c1ccc(OC3CC3)c(F)c1)C(F)(F)F)nc2-c1ccc(F)cc1 [Example 72]

- EC50: < 0.2 µM
Structure (SMILES): C[C@]1(C(N)=O)COc2c1cc([C@@](O)(CNC(=O)c1cc(N)c3ncccc3c1)C(F)(F)F)nc2-c1ccc(F)cc1 [Example 279]

- EC50: < 0.2 µM
Structure (SMILES): CCc1cnc2c(O)cc(C(=O)NC[C@](O)(c3cc4c(c(-c5ccc(F)cc5)n3)OC[C@]4(C)C(N)=O)C(F)(F)F)cc2c1 [Example 261]

- EC50: < 0.2 µM
Structure (SMILES): C[C@]1(C(N)=O)COc2c1cc([C@@](O)(CNC(=O)c1cc3cccnc3[nH]1)C(F)(F)F)nc2-c1ccc(F)cc1 [Example 303]

- EC50: < 0.2 µM
Structure (SMILES): Cc1cnc2c(NC(=O)NC3COC3)cc(C(=O)NC[C@](O)(c3cc4c(c(-c5ccc(F)cc5)n3)OC[C@]4(C)C(N)=O)C(F)(F)F)cc2c1 [Example 559]

- EC50: < 0.2 µM
Structure (SMILES): Cc1cnc2c(N3CCNC3=O)cc(C(=O)NC[C@](O)(c3cc4c(c(-c5ccc(F)cc5)n3)OC[C@]4(C)C(N)=O)C(F)(F)F)cc2c1 [Example 659]
